Measured values: PubChem BioAssay (NCI)
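Interpolation was linear, between the two tested concentrations surrounding the appropriate level; five concentrations were tested over 48 hours in 96-well plates. TGI is the concentration that stops growth completely.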

What was measured:
Test in all cases: NCI-60 cell line screen, 48 h
[1] = test system: EKVX NSCLC
[2] = test system: SK-MEL-28 melanoma
[3] = test system: SNB-75 CNS
[4] = test system: HS 578T breast
[5] = test system: NCI-H23 lung
[6] = test system: NCI-H226 lung
[7] = test system: MCF7 breast
[8] = test system: HCT-116 colon
[9] = test system: K-562 leukemia
[10] = test system: SN12C renal
[11] = test system: SF-539 CNS
[12] = test system: SR leukemia
[13] = test system: SW-620 colon
[14] = test system: KM12 colon
[15] = test system: OVCAR-8 ovarian
[16] = test system: DU-145 prostate
[17] = test system: SK-OV-3 ovarian
[18] = test system: TK-10 renal
[19] = test system: OVCAR-5 ovarian
[20] = test system: NCI/ADR-RES ovarian
[21] = test system: T-47D breast
[22] = test system: HOP-92 NSCLC
[23] = test system: COLO 205 colon
[24] = test system: SF-268 CNS
[25] = test system: MDA-N
[26] = test system: MOLT-4 leukemia
[27] = test system: CCRF-CEM leukemia
[28] = test system: RPMI-8226 leukemia
[29] = test system: HCC-2998 colon
[30] = test system: IGROV1 ovarian
[31] = test system: A498 renal
[32] = test system: MDA-MB-435
[33] = test system: RXF 393 renal
[34] = test system: UACC-257 melanoma
[35] = test system: M14 melanoma
[36] = test system: 786-0 renal
[37] = test system: NCI-H460 lung
[38] = test system: UO-31 renal
[39] = test system: U251 CNS
[40] = test system: HOP-62 NSCLC
[41] = test system: ACHN renal
[42] = test system: SF-295 CNS
[43] = test system: OVCAR-3 ovarian
[44] = test system: HCT-15 colon
[45] = test system: SK-MEL-5 melanoma
[46] = test system: PC-3 prostate
[47] = test system: HL-60(TB) leukemia
[48] = test system: SNB-19 CNS
[49] = test system: BT-549 breast
[50] = test system: A549 NSCLC
[51] = test system: MALME-3M melanoma
[52] = test system: UACC-62 melanoma
[53] = test system: SK-MEL-2 melanoma
[54] = test system: HT29 colon
[55] = test system: NCI-H522 lung
[56] = test system: OVCAR-4 ovarian
[57] = test system: LOX IMVI melanoma
[58] = test system: CAKI-1 renal
[59] = test system: MDA-MB-231 breast

Measured: TGI

C1=C[C@@H]2c3ccc4cnccc4c3NC[C@@H]2C1
not listed: [53] | [54] | [55] | [56] | [57] | [58] | [59]
> 100 µM: all other assays above

CC(C)CC(=O)NC(Nc1ccc(S(=O)(=O)Nc2ncccn2)cc1)(C(F)(F)F)C(F)(F)F
not listed: [7] | [18] | [31]
> 100 µM: all other assays above
